{"source": "ChEMBL document CHEMBL1130615", "about": "“Synthesis, DNA-damaging and cytotoxic properties of novel topoisomerase II-directed bisantrene analogues” (Bioorg Med Chem Lett, 1998)", "key": {"[1]": {"target": "T1, DNA topoisomerase II (Homo sapiens) (UniProt P11388+Q02880)", "experiment": "Percent of DNA remaining uncut after incubation with Topoisomerase II at 0.1 uM concentration", "assay_type": "protein assay"}, "[2]": {"system": "HL-60", "experiment": "Cell cytotoxicity was determined against human promyelocytic leukemia (HL60) cell line", "assay_type": "functional, cell-based"}, "[3]": {"system": "A2780", "experiment": "Cell cytotoxicity was determined against human ovarian cancer (A2780) cell line", "assay_type": "functional, cell-based"}, "[4]": {"target": "T1, DNA topoisomerase II (Homo sapiens)", "experiment": "Percent of DNA remaining uncut after incubation with Topoisomerase II at 10 uM concentration", "assay_type": "protein assay"}, "[5]": {"target": "T1, DNA topoisomerase II (Homo sapiens)", "experiment": "Percent of DNA remaining uncut after incubation with Topoisomerase II at 1 uM concentration", "assay_type": "protein assay"}}, "note": "pIC50: −log10 of the molar value.", "data": [{"smiles": "C(=N\\NC1=NCCN1)/c1c2ccccc2c(/C=N/NC2=NCCN2)c2ccccc12", "note": "[BISANTRENE]", "values": [{"measurement": "Uncut DNA", "setting": "[1]", "result": 14, "unit": "%"}, {"measurement": "pIC50", "setting": "[2]", "result": 6.52}, {"measurement": "pIC50", "setting": "[3]", "result": 6.47}, {"measurement": "Uncut DNA", "setting": "[4]", "result": 57, "unit": "%"}, {"measurement": "Uncut DNA", "setting": "[5]", "result": 46, "unit": "%"}]}, {"smiles": "C(=N\\NC1=NCCN1)/c1ccc(/C=N/NC2=NCCN2)c2cc3ccccc3cc12", "values": [{"measurement": "Uncut DNA", "setting": "[1]", "result": 54, "unit": "%"}, {"measurement": "pIC50", "setting": "[2]", "result": 4.95}, {"measurement": "pIC50", "setting": "[3]", "result": 5.32}, {"measurement": "Uncut DNA", "setting": "[4]", "result": 95, "unit": "%"}, {"measurement": "Uncut DNA", "setting": "[5]", "result": 103, "unit": "%"}]}, {"smiles": "C(=N\\NC1=NCCN1)/c1c2ccccc2cc2ccccc12", "values": [{"measurement": "Uncut DNA", "setting": "[1]", "result": 41, "unit": "%"}, {"measurement": "pIC50", "setting": "[2]", "result": 4.13}, {"measurement": "pIC50", "setting": "[3]", "result": 4.42}, {"measurement": "Uncut DNA", "setting": "[4]", "result": 11, "unit": "%"}, {"measurement": "Uncut DNA", "setting": "[5]", "result": 30, "unit": "%"}]}, {"smiles": "COc1cc(NS(C)(=O)=O)ccc1Nc1c2ccccc2nc2ccccc12", "note": "[AMSACRINE]", "values": [{"measurement": "Uncut DNA", "setting": "[1]", "result": 12, "unit": "%"}, {"measurement": "pIC50", "setting": "[2]", "result": 6.40}, {"measurement": "pIC50", "setting": "[3]", "result": 6.46}, {"measurement": "Uncut DNA", "setting": "[4]", "result": 1, "unit": "%"}, {"measurement": "Uncut DNA", "setting": "[5]", "result": 4, "unit": "%"}]}, {"smiles": "C(=N\\NC1=NCCN1)/c1c2ccccc2nc2ccccc12", "values": [{"measurement": "Uncut DNA", "setting": "[1]", "result": 51, "unit": "%"}, {"measurement": "pIC50", "setting": "[2]", "result": 4.32}, {"measurement": "pIC50", "setting": "[3]", "result": 4.55}, {"measurement": "Uncut DNA", "setting": "[4]", "result": 25, "unit": "%"}, {"measurement": "Uncut DNA", "setting": "[5]", "result": 38, "unit": "%"}]}, {"smiles": "C(=N\\NC1=NCCN1)/c1cccc2cc3ccccc3cc12", "values": [{"measurement": "Uncut DNA", "setting": "[1]", "result": 56, "unit": "%"}, {"measurement": "pIC50", "setting": "[2]", "result": 4.64}, {"measurement": "pIC50", "setting": "[3]", "result": 4.73}, {"measurement": "Uncut DNA", "setting": "[4]", "result": 20, "unit": "%"}, {"measurement": "Uncut DNA", "setting": "[5]", "result": 48, "unit": "%"}]}]}
